# Tests used:
# [1] = biological target: Ephrin type-A receptor 7 (Homo sapiens, UniProt Q15375); assay: Displacement of biotinylated ephrin-A1-Fc from EphA7 (unknown origin) preincubated for 1 hr followed by biotinylated-ephrin-A1-Fc addition measured after 4 hrs by ELISA
# [2] = biological target: T1, Ephrin type-B receptor 6 (Homo sapiens) (UniProt O15197); assay: (§1) Displacement of biotinylated ephrin-B1-Fc from EphB6 (unknown origin) preincubated for 1 hr followed by biotinylated-ephrin-B1-Fc addition measured after 4 hrs by ELISA
# T1 sequence (whole entry): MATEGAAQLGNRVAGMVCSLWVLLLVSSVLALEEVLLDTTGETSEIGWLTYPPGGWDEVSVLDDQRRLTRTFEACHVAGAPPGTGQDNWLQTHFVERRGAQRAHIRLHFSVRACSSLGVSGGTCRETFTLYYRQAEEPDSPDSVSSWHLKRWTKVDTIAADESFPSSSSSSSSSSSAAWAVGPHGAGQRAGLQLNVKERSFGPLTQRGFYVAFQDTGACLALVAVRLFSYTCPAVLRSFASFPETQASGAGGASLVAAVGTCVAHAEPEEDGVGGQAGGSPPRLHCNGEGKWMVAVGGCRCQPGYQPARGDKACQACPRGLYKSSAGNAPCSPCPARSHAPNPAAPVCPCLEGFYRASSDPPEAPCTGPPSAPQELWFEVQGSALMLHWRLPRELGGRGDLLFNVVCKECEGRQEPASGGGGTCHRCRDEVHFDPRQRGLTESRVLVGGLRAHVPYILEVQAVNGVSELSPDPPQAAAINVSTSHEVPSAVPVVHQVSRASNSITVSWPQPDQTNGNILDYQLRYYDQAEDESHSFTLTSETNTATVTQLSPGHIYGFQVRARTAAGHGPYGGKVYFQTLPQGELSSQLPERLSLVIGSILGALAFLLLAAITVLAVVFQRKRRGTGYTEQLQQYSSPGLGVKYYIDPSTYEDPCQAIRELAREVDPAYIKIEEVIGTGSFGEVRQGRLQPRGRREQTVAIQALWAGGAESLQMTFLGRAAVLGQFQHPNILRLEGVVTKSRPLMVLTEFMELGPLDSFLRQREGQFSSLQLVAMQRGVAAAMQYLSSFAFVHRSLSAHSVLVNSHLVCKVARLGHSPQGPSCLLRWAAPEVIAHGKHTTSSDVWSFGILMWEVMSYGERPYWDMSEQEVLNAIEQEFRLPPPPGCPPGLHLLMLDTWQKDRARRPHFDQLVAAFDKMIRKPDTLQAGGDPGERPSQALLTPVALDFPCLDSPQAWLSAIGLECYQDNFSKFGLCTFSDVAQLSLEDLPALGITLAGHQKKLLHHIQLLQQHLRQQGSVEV
# [3] = biological target: T2, Ephrin type-B receptor 6 (Homo sapiens, UniProt O15197); assay: as §1
# T2 sequence (O15197 whole entry): T1 sequence (whole entry)
compound,measurement,setting,value
C[C@H](CCC(=O)N[C@@H](Cc1c[nH]c2ccccc12)C(=O)O)[C@H]1CC[C@H]2[C@@H]3CC=C4C[C@@H](O)CC[C@]4(C)[C@H]3CC[C@]12C,IC50,[1],2500 nM
same,inhibition,[1],Dose-dependent effect
same,inhibition,[2],Dose-dependent effect
same,IC50,[3],3300 nM

# From ChEMBL document CHEMBL3734669, “Δ(5)-Cholenoyl-amino acids as selective and orally available antagonists of the Eph-ephrin system” (Eur J Med Chem, 2015)
